# How the values were obtained:
# [1] = test system: Plasmodium falciparum K1 strain; experiment: Anti-Plasmodium activity assay (Malstat); type: cell-based; conditions: P. falciparum K1, 72 h
# Method: (§1) The compound set was tested against the following parasites: intra-erythrocytic forms in human red blood cells of P. falciparum K1 strain (malaria), [16], [32], [33], [35], bloodstream forms of T. brucei Squib 427 strain (human African trypanosomiasis, HAT), [31], [32], [34], intracellular amastigotes of T. cruzi Tulahuen CL2, beta- galactosidase strain (Chagas' Disease), [32]–[35], intracellular amastigotes of L. infantum MHOM/MA(BE)/67 (leishmaniasis), [32]–[36], larval and/or adult worms of S. mansoni Puerto Rican strain (schistosomiasis), [31], [37], microfilariae of B. malayi (lymphatic filariasis), [30] and microfilariae of O. ochengi or O. lienalis (onchocerciasis), [30]. It should be noted that the human pathogen for onchocerciasis is Onchocerca volvulus, but due to lack of a suitable in vitro assay or animal models for this pathogen, O. ochengi and lienalis, which are both animal pathogens, are used in the primary and secondary assays, [30].
# [2] = test system: Onchocerca (lienalis or ochengi) microfilariae; experiment: Anti-Onchocerca microfilariae motility assay; type: cell-based, Onchocerca lienalis or O. ochengi
# Method: as §1
# 4240 compound s were screened against O. ochengi at the University of Buea in Cameroon, while a subset of […] compounds was successfully screened in UK by the Northwick Park Institute for Medical Research against O. lienalis, at a uniform molarity. […] After removing molecules that were toxic to mammalian cells (IC50<5 µg/ml), 292 molecules remained for further evaluation. […] From the latter sub-set, […] distinct chemical series and one singleton [structure # 35] were active against both microfilaria and adults. One series [structures # 2, 3] was deemed not interesting due to lack of selectivity against mammalian cells. The remaining series is being transferred to ANDI for further progression as part of a new collaboration.
# [3] = test system: Trypanosoma cruzi, Tulahuen CL2 strain; experiment: Antitrypanosomal activity assay, T. cruzi in MRC-5 cells; type: cell-based; conditions: T. cruzi Tulahuen CL2 in MRC-5 cells, 7 days
# Method: as §1
# 171 of the 744 actives passed the initial criterion of IC50<1 µg/ml for T. cruzi Tulahuen CL2, beta galactosidase strain maintained on MRC-5SV2 cells in MEM medium (MRC-5 cell/parasite inoculum: 4.10^3 cells/well+4.10^4 parasites/well), supplemented with […] L-glutamine, 16.5 mM NaHCO3 and 5% heat inactivated fetal calf serum. […] Of these, 109 were eliminated [structures #1–6] for poor selectivity versus mammalian cells (SI<50) and an additional 11 due to undesirable chemical attributes. The remaining 51 compounds were sorted into 10 series (45 compounds) and 6 singletons [structures # 21, 22]. Two of these series with excellent potency against T. cruzi, limited activity against other protozoa and SI values >50 (not shown), have been transferred to DNDi for further evaluation.
# [4] = test system: MRC-5 cell line (diploid human embryonic lung fibroblast); experiment: Cytotoxicity on MRC-5 cells; type: cell-based
# From the text: [table] An important part of the screen is the evaluation of all compounds for cytotoxicity using the diploid human embryonic lung fibroblast MRC-5 cell line (Figure 2). Further evaluation of cytotoxicity also takes advantage of the assays for intracellular protozoan parasites, as in the case of L. infantum and T. cruzi, which include murine peritoneal macrophage host cells and MRC-5SV2 human lung fibroblast cells, respectively, in the culture system.
# [5] = test system: Brugia malayi microfilariae; experiment: Anti-Brugia malayi microfilariae motility assay; type: cell-based; conditions: B. malayi microfilariae; 12.5 µM
# Method: as §1
# As result of logistics issues attributed to lost shipments of some compounds, only 6160 molecules of the 10,000 compound set were tested, at a uniform molarity, against B. malayi, including 6063 against microfilariae and 756 against adult worms (these sets overlap). […] Greatest priority was given to compounds with activity against adult worms, as no macrofilaricide is available for use in control campaigns and the activity of ivermectin as a microfilaricidal agent is unlikely to be bettered in a new series. Of the test set, 53 compounds met the activity criterion for microfilariae (100% motility reduction) and an additional 58 inhibited adult worm motility ≥75% at 10 µM. These were titrated to determine an IC50 value to support prioritization. Following cytotoxicity triage [structures # 1, 4, 6], eight compounds met the activity criterion for adult worms (i.e., 100% inhibition of adult worm motility), four of which were also active against microfilariae [structures # 14, 29, 30, 32]. […] Of these, the most interesting was TDR76699 [structure # 29]; this compound has very good activity against adult worms (IC50 = 0.1 µg/ml) and is also active against microfilariae (IC50 = 0.7 µg/ml). None of the other compounds tested against adult parasites had IC50 values ≤0.5 µg/ml, a threshold which would reduce concerns about specificity. However, a few series [structures # 31, 33, 34], appear interesting for future medicinal chemistry projects.
# [6] = test system: Schistosoma mansoni adult worms; experiment: Anti-Schistosoma activity assay (adult worm motility); type: cell-based; conditions: S. mansoni adult worms; 12.5 µM (method: 10 µg/ml or 12.5 µM)
# Method: as §1
# A subset of 9478 of the 10,000 compound collection was tested against the Puerto Rican strain of S. mansoni. 6144 of these were tested in a primary larval assay followed by the ex-vivo adult secondary screen. The remainder was screened only in the adult assay. […] The 65 compounds were sorted by chemical attractiveness, potency against adult schistosomes in culture, selectivity against other parasites, and toxicity to mammalian cells in culture. Based on this analysis, 5 series encompassing 13 compounds were chosen for advancement through the African Network for Drug and Diagnostic Innovation (ANDI) and other PDPs. Representative structures [structures # 13, 27, 28] are shown (Table S1). These compounds are unburdened by obvious toxic moieties, have acceptable compliance with the Lipinski rules, are selectively active against schistosomes and are not overtly toxic to mammalian cells. It has unfortunately not been possible to titrate all of these hits in culture; of about 50% for which such data are available, none has an IC50<2 µg/ml (which is the initial potency criteria).
# [7] = test system: Trypanosoma brucei brucei Squib-427 strain; experiment: Antitrypanosomal activity assay, T. brucei (resazurin); type: cell-based; conditions: T. brucei Squib 427 bloodstream forms, 72 h
# Method: as §1
SMILES,MAL IC50 [1] [µg/mL],ONC/MF % Motility Reduction at 12.5µM [2] [%],CHA IC50 [3] [µg/mL],CYT IC50 [4] [µg/mL],LF/MF % Motility Reduction at 12.5µM [5] [%],SCH % Motility Reduction at 12.5µM [6] [%],HAT IC50 [7] [µg/mL]
Cc1c(C(=O)N2CCC(C)CC2)sc2nc(-c3ccc(F)cc3)cn12 [TDR77657],>10.72,0,>10.72,>10.72,0,0,0.42
O=S(=O)(NCC(c1cccnc1)N1CCN(Cc2ccccc2)CC1)c1ccc(Cl)cc1 (stereo not shown) [TDR78023],2.18,0,0.63,>14.13,–,0,>14.13
C=CCN(CC=C)S(=O)(=O)c1ccc(C(=O)Nc2nc3ccc(C(C)C)cc3s2)cc1 [TDR78794],>10.99,0,4.48,>10.99,–,100,>10.99
O=C(CSc1ccc2nnc(-c3ccccn3)n2n1)NCC1CCCO1 (stereo not shown) [TDR78834],3.15,0,5.2,>12.1,–,0,3.3
COc1ccc(N2CCCS2(=O)=O)cc1NC(=O)c1cc(Cl)ccc1OC [TDR79456],>12.3,13.3,5.0,>12.3,–,4,4.3
O=C(Nc1nc(-c2ccncc2)cs1)C1CCCN(S(=O)(=O)c2ccc(Cl)s2)C1 (stereo not shown) [TDR80165],6.68,50,0.24,>14.07,–,0,4.5
O=C(CN1CCC(C(=O)Nc2ccc(Oc3ccccc3)cc2)CC1)Nc1ccc(F)cc1 [TDR80731],>13.43,0,>13.43,>13.43,–,0,>13.43
Cc1ccc(N2CCn3c2nnc(C(=O)NCCC2=CCCCC2)c3=O)cc1 [TDR81281],0.15,0,>11.38,>11.38,–,0,>11.38
CCOc1ccc2nc(N(Cc3cccnc3)C(=O)c3ccc(Cl)s3)sc2c1 [TDR81636],3.55,11,0.66,>12.2,0,0,3.52
CCCn1/c(=N/C(=O)C2=COCCO2)sc2c(C)ccc(OC)c21 [TDR82272],3.18,20,0.89,>10.45,0,0,>10.45
O=C(Cc1ccc(F)cc1)Nc1nc(-c2ccccn2)cs1 [TDR82963],2.97,23,0.33,>9.4,0,0,0.31
COc1ccc(SCC(=O)Nc2nc(-c3ccccn3)cs2)cc1 [TDR83845],>10.72,86,0.36,>10.72,0,0,0.35
CSc1ccc2nc(N(Cc3cccnc3)C(=O)c3ccc(C(C)(C)C)cc3)sc2c1 [TDR84420],0.15,25,0.56,7.16,0,0,>13.43
CS(=O)(=O)c1ccc2nc(N(Cc3cccnc3)C(=O)c3ccc4ccccc4c3)sc2c1 [TDR84431],>14.21,0,0.23,>14.21,0,0,>14.21
CSc1cccc(C(=O)N(Cc2cccnc2)c2nc3ccc(S(C)(=O)=O)cc3s2)c1 [TDR84433],8.28,0,0.38,>14.09,0,0,>14.09
O=C(Cc1csc(NC(=O)C2CCC(=O)N2)n1)NCc1ccccn1 (stereo not shown) [TDR84826],>10.78,50,>10.78,>10.78,20,100,>10.78
CC(C)(C)n1ncc2c(=O)n(CCC(=O)NCc3ccccc3Cl)cnc21 [TDR84851],>11.64,0,>11.64,>11.64,20,100,>11.64
O=S(=O)(c1cccnc1)N1CCN(c2ccc(-c3cccs3)nn2)CC1 [TDR85115],>11.6,0,>11.6,>11.6,50,0,>11.6
Cc1ccc(C(=O)Nc2nnc(Cc3cccs3)o2)cc1C [TDR85275],–,0,3.01,–,50,25,0.38
